Measurements: ChEMBL document CHEMBL5543083, “3,5-Disubstituted-thiazolidine-2,4-dione hybrids as antidiabetic agents: Design, synthesis, in-vitro and In vivo evaluation” (Eur J Med Chem, 2024)
In brackets after ≈: the same amount, converted by molar mass. Activity calls are given as the source filed them. The calls are words filed in the database; no cut-off is given here.

Legend:
Rattus norvegicus [1] = assay: Antidiabetic activity against streptozotocin-induced Wistar rat assessed as increase in serum ALP level at 10 mg/kg, po measured upto 35 days; format: functional, organism-based; settings: time <= 35.0 day
PANC-1 [2] = assay: Cytotoxicity against human PANC-1 cells assessed as inhibition of cell growth; format: functional, cell-based; settings: Homo sapiens, PANC-1; read-out: IC50
Rattus norvegicus [3] = assay: Antidiabetic activity against streptozotocin-induced Wistar rat assessed as effect on serum catalase level at 10 mg/kg, po measured upto 35 days; format: functional, organism-based; settings: time <= 35.0 day
Alpha-amylase = target: T1, Alpha-amylase (Sus scrofa domesticus, UniProt Q7M328); assay: Inhibition of porcine pancreatic Alpha-amylase using starch as substrate preincubated for 10 mins followed by substrate addition and measured after 15 mins by Bio-rad microplate reader analysis; settings: read-out: IC50
T1 sequence (Q7M328 whole entry): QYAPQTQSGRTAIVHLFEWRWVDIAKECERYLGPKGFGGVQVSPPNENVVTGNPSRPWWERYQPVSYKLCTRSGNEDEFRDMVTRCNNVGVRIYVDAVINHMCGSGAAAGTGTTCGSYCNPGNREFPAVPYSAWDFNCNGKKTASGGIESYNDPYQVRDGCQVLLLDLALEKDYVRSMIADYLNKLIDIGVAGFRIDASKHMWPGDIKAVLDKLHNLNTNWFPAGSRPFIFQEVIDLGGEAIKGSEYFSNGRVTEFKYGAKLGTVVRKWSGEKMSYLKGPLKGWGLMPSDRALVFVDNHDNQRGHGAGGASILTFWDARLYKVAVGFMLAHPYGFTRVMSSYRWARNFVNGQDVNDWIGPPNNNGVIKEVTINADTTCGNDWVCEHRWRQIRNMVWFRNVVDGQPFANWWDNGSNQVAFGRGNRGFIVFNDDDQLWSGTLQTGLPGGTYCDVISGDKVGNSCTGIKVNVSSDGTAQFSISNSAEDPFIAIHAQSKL

[4] = Toxicity in streptozotocin-induced Wistar rat assessed as morphological changes in liver at 10 mg/kg, po measured up to 35 days; format: organism-based; settings: in vivo, 840 h, time < 35 day
[5] = Toxicity in streptozotocin-induced Wistar rat assessed as morphological changes in pancrease at 10 mg/kg, po measured up to 35 days; format: organism-based; settings: in vivo, 840 h, time < 35 day
PANC-1 [6] = assay: Induction of ROS production in high glucose-induced human PANC-1 cells assessed as maximum fluorescence intensity at 10 uM incubated for 30 mins DCFDA-staining based flow cytometry analysis (reference value: 15.09); format: functional; settings: 0.5 h
Rattus norvegicus [7] = assay: Antidiabetic activity against streptozotocin-induced Wistar rat assessed as decrease in blood glucose level at 10 mg/kg, po measured at 30 mins by oral glucose test; format: functional, organism-based
Alpha-glucosidase = Alpha-glucosidase (Saccharomyces cerevisiae S288c, UniProt P53341+P38158+P07265); assay: Inhibition of yeast Alpha glucosidase 4-nitrophenyl-alpha-D-glucopyranoside incubated for 15 to 20 mins by Bio-rad microplate reader analysis; format: protein assay
Rattus norvegicus [8] = assay: Antidiabetic activity against streptozotocin-induced Wistar rat assessed as increase in serum amylase level at 10 mg/kg, po measured upto 35 days by ELISA analysis; format: functional, organism-based; settings: time <= 35.0 day
Rattus norvegicus [9] = assay: Antidiabetic activity against streptozotocin-induced Wistar rat assessed as effect on blood glucose level at 10 mg/kg, po measured on day 1; format: functional, organism-based; settings: time 1.0 day
Rattus norvegicus [10] = assay: Antidiabetic activity against streptozotocin-induced Wistar rat assessed as change in serum SGPT level at 10 mg/kg, po measured upto 35 days; format: functional, organism-based; settings: time <= 35.0 day
[11] = Toxicity in Wistar rat assessed as decrease in body weight at 10 mg/kg, po measured on day 14; format: organism-based; settings: in vivo, 336 h, time 14 day
Rattus norvegicus [12] = assay: Antidiabetic activity against streptozotocin-induced Wistar rat assessed as increase in IL1-beta level in Pancreas at 10 mg/kg, po measured upto 35 days; format: functional, organism-based; settings: time <= 35.0 day
Rattus norvegicus [13] = assay: Antidiabetic activity against streptozotocin-induced Wistar rat assessed as change in serum SGOT level at 10 mg/kg, po measured upto 35 days; format: functional, organism-based; settings: time <= 35.0 day
Rattus norvegicus [14] = assay: Antidiabetic activity against streptozotocin-induced Wistar rat assessed as decrease in blood glucose level at 10 mg/kg, po measured at 60 mins by oral glucose test; format: functional, organism-based
Rattus norvegicus [15] = assay: Antidiabetic activity against streptozotocin-induced Wistar rat assessed as change in uric acid level at 10 mg/kg, po measured upto 35 days; format: functional, organism-based; settings: time <= 35.0 day
Rattus norvegicus [16] = assay: Antidiabetic activity against streptozotocin-induced Wistar rat assessed as effect on blood glucose level at 10 mg/kg, po measured on day 4; format: functional, organism-based; settings: time 4.0 day
Rattus norvegicus [17] = assay: Antidiabetic activity against streptozotocin-induced Wistar rat assessed as increase in serum creatine level at 10 mg/kg, po measured upto 35 days; format: functional, organism-based; settings: time <= 35.0 day
Rattus norvegicus [18] = assay: Antidiabetic activity against streptozotocin-induced Wistar rat assessed as increase in TNF-alpha level in Pancreas at 10 mg/kg, po measured upto 35 days; format: functional, organism-based; settings: time <= 35.0 day
[19] = Antioxidant activity assessed as DPPH radical scavenging activity measured for 30 mins by spectrophotometric analysis; format: functional; settings: read-out: IC50
Rattus norvegicus [20] = assay: Antidiabetic activity against streptozotocin-induced Wistar rat assessed as change in blood urea nitrogen level at 10 mg/kg, po measured upto 35 days; format: functional, organism-based; settings: time <= 35.0 day
[21] = Toxicity in streptozotocin-induced Wistar rat assessed as change in blood lymphocyte count at 10 mg/kg, po measured up to 35 days; format: organism-based; settings: in vivo, 840 h, time < 35 day
[22] = Toxicity in Wistar rat assessed as decrease in body weight at 10 mg/kg, po measured on day 35; format: organism-based; settings: in vivo, 840 h, time 35 day
[23] = Toxicity in streptozotocin-induced Wistar rat assessed as morphological changes in kidney at 10 mg/kg, po measured up to 35 days; format: organism-based; settings: in vivo, 840 h, time < 35 day
Rattus norvegicus [24] = assay: Antidiabetic activity against streptozotocin-induced Wistar rat assessed as decrease in HDL level at 10 mg/kg, po measured upto 35 days; format: functional, organism-based; settings: time <= 35.0 day
[25] = Toxicity in streptozotocin-induced Wistar rat assessed as changes in organ to body weight ratio at 10 mg/kg, po measured up to 35 days; format: organism-based; settings: in vivo, 840 h, time < 35 day
Rattus norvegicus [26] = assay: Antidiabetic activity against Wistar rat assessed as decrease in total cholesterol level at 10 mg/kg, po measured upto 35 days; format: functional, organism-based; settings: time <= 35.0 day
Rattus norvegicus [27] = assay: Antidiabetic activity against Wistar rat assessed as effect on glutathione level at 10 mg/kg, po measured upto 35 days; format: functional, organism-based; settings: time <= 35.0 day
Rattus norvegicus [28] = assay: Antidiabetic activity against streptozotocin-induced Wistar rat assessed as effect on glutathione level at 10 mg/kg, po measured upto 35 days; format: functional, organism-based; settings: time <= 35.0 day
Rattus norvegicus [29] = assay: Antidiabetic activity against streptozotocin-induced Wistar rat assessed as decrease in triglyceride level at 10 mg/kg, po measured upto 35 days; format: functional, organism-based; settings: time <= 35.0 day
[30] = Toxicity in streptozotocin-induced Wistar rat assessed as decrease in basophil count at 10 mg/kg, po measured up to 35 days; format: organism-based; settings: in vivo, 840 h, time < 35 day
Rattus norvegicus [31] = assay: Antidiabetic activity against streptozotocin-induced Wistar rat assessed as decrease in MDA level at 10 mg/kg, po measured upto 35 days; format: functional, organism-based; settings: time <= 35.0 day
Rattus norvegicus [32] = assay: Antidiabetic activity against streptozotocin-induced Wistar rat assessed as decrease in SOD level at 10 mg/kg, po measured upto 35 days; format: functional, organism-based; settings: time <= 35.0 day
[33] = Toxicity in streptozotocin-induced Wistar rat assessed as decrease in tubular necrosis in kidney at 10 mg/kg, po measured up to 35 days; format: organism-based; settings: in vivo, 840 h, time < 35 day
Rattus norvegicus [34] = assay: Antidiabetic activity against Wistar rat assessed as increase in serum creatine level at 10 mg/kg, po measured upto 35 days; format: functional, organism-based; settings: time <= 35.0 day
[35] = Toxicity in streptozotocin-induced Wistar rat assessed as decrease in dilation of renal tubules in kidney at 10 mg/kg, po measured up to 35 days; format: organism-based; settings: in vivo, 840 h, time < 35 day
[36] = Toxicity in streptozotocin-induced Wistar rat assessed as decrease in eosinophil count at 10 mg/kg, po measured up to 35 days; format: organism-based; settings: in vivo, 840 h, time < 35 day
Rattus norvegicus [37] = assay: Antidiabetic activity against streptozotocin-induced Wistar rat assessed as increase in PPAR-gamma level at 10 mg/kg, po measured upto 35 days by ELISA analysis; format: functional, organism-based; settings: time <= 35.0 day
[38] = Antioxidant activity assessed as DPPH radical scavenging activity; format: functional
Alpha amylase = target: T2, Alpha amylase (Homo sapiens, UniProt P0DUB6); assay: Inhibition of Alpha-amylase (unknown origin); format: protein assay
T2 sequence (P0DUB6 whole entry): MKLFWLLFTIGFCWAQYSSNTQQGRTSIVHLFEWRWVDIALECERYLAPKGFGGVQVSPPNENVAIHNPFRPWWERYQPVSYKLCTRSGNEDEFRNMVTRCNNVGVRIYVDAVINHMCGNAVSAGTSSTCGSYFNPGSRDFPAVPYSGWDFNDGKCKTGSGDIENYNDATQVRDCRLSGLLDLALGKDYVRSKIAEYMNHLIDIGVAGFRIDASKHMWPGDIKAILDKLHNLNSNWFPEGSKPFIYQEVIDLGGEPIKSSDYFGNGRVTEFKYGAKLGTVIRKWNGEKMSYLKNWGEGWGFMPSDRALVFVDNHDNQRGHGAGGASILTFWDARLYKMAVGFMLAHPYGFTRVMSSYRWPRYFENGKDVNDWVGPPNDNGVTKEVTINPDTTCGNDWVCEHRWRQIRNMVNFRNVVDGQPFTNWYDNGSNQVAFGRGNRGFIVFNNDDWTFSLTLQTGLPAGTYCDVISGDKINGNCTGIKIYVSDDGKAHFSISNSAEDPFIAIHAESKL

[39] = Toxicity in streptozotocin-induced Wistar rat assessed as decrease in glomeruli shrinkage in kidney at 10 mg/kg, po measured up to 35 days; format: organism-based; settings: in vivo, 840 h, time < 35 day
Rattus norvegicus [40] = assay: Antidiabetic activity against streptozotocin-induced Wistar rat assessed as change in BUN level at 10 mg/kg, po measured upto 35 days; format: functional, organism-based; settings: time <= 35.0 day

Row | Structure (SMILES) | Activity (Rattus norvegicus [1]) | IC50 (PANC-1 [2]) [µM] | IC50 (Alpha-amylase) [µM] | Activity [4] | Activity [5] | Flu intensity (PANC-1 [6]) | Activity (Rattus norvegicus [7]) | IC50 (Alpha-glucosidase) [µM] | Activity (Rattus norvegicus [8]) | Activity (Rattus norvegicus [9]) | Activity (Rattus norvegicus [10]) | Activity [11] | Activity (Rattus norvegicus [12]) | Activity (Rattus norvegicus [13]) | Activity (Rattus norvegicus [14]) | Activity (Rattus norvegicus [16]) | Activity (Rattus norvegicus [18]) | IC50 [19] [µM] | Activity (Rattus norvegicus [20]) | Activity [21] | further results
1 | O=C1S/C(=C\c2ccc(Cl)cc2Cl)C(=O)N1Cc1cccc([N+](=O)[O-])c1 | Active | 152 | 24.1 | Non-Toxic | Non-Toxic | 1474 | Active | 20.94 | Active | Active | inactive | Non-Toxic | Active | inactive | Active | Active | Active | 23.2 | – | – | Activity (Rattus norvegicus [3]): Active; Activity (Rattus norvegicus [15]): Active; Activity (Rattus norvegicus [17]): Active
2 | CCOc1cc(/C=C2\SC(=O)N(Cc3cccc([N+](=O)[O-])c3)C2=O)ccc1O | Active | 207 | 10.2 | Non-Toxic | Non-Toxic | 1324 | Active | 10.33 | Active | Active | Active | Non-Toxic | Active | Active | Active | Active | Active | 14.9 | Active | Non-Toxic | Activity [22]: Toxic; Activity [23]: Non-Toxic; Activity (Rattus norvegicus [24]): Active; Activity [25]: Non-Toxic; Activity (Rattus norvegicus [26]): Active; Activity (Rattus norvegicus [27]): Active; Activity (Rattus norvegicus [28]): inactive; Activity (Rattus norvegicus [29]): Active; Activity [30]: Non-Toxic; Activity (Rattus norvegicus [31]): Active; Activity (Rattus norvegicus [32]): Active; Activity [33]: Non-Toxic; Activity (Rattus norvegicus [34]): Active; Activity [35]: Non-Toxic; Activity [36]: Non-Toxic; Activity (Rattus norvegicus [37]): Active
3 | O=C(O)CN1C(=O)S/C(=C\c2ccc3c(c2)OCO3)C1=O | – | – | – | – | – | – | – | – | – | – | – | – | – | – | – | – | – | – | – | – | IC50 [38]: 10.78 µg/mL (≈ 35.1 µM); IC50 (Alpha amylase): 10.26 µg/mL (≈ 33.4 µM)
4 | O=C1S/C(=C\c2ccc(Br)cc2)C(=O)N1Cc1cccc([N+](=O)[O-])c1 | Active | 62.2 | 23.9 | – | Non-Toxic | 1514 | – | 20.02 | – | Active | Active | Non-Toxic | Active | Active | Active | Active | Active | 23.3 | Active | Non-Toxic | Activity [39]: Non-Toxic; Activity [22]: Toxic; Activity [23]: Non-Toxic; Activity (Rattus norvegicus [24]): Active; Activity [25]: Non-Toxic; Activity (Rattus norvegicus [26]): Active; Activity (Rattus norvegicus [27]): Active; Activity (Rattus norvegicus [28]): inactive; Activity (Rattus norvegicus [29]): Active; Activity [30]: Non-Toxic; Activity (Rattus norvegicus [31]): Active; Activity (Rattus norvegicus [32]): Active; Activity [33]: Non-Toxic; Activity (Rattus norvegicus [34]): Active; Activity [35]: Non-Toxic; Activity [36]: Non-Toxic; Activity (Rattus norvegicus [37]): Active; Activity (Rattus norvegicus [40]): Active
